Bridge positions count the residues as written; N and C are the ends. Peptide text beside a SMILES is read from it.

For this assay, the target named is T1, rabbit skeletal RyR1 (native RyR1 in HSR) (Oryctolagus cuniculus, UniProt P11716).
T1 construct: tested using native RyR1 in rabbit skeletal HSR; from tissue; host or cells: rabbit fast-twitch back and leg muscles (heavy SR vesicles)
T1 sequence (P11716 whole entry): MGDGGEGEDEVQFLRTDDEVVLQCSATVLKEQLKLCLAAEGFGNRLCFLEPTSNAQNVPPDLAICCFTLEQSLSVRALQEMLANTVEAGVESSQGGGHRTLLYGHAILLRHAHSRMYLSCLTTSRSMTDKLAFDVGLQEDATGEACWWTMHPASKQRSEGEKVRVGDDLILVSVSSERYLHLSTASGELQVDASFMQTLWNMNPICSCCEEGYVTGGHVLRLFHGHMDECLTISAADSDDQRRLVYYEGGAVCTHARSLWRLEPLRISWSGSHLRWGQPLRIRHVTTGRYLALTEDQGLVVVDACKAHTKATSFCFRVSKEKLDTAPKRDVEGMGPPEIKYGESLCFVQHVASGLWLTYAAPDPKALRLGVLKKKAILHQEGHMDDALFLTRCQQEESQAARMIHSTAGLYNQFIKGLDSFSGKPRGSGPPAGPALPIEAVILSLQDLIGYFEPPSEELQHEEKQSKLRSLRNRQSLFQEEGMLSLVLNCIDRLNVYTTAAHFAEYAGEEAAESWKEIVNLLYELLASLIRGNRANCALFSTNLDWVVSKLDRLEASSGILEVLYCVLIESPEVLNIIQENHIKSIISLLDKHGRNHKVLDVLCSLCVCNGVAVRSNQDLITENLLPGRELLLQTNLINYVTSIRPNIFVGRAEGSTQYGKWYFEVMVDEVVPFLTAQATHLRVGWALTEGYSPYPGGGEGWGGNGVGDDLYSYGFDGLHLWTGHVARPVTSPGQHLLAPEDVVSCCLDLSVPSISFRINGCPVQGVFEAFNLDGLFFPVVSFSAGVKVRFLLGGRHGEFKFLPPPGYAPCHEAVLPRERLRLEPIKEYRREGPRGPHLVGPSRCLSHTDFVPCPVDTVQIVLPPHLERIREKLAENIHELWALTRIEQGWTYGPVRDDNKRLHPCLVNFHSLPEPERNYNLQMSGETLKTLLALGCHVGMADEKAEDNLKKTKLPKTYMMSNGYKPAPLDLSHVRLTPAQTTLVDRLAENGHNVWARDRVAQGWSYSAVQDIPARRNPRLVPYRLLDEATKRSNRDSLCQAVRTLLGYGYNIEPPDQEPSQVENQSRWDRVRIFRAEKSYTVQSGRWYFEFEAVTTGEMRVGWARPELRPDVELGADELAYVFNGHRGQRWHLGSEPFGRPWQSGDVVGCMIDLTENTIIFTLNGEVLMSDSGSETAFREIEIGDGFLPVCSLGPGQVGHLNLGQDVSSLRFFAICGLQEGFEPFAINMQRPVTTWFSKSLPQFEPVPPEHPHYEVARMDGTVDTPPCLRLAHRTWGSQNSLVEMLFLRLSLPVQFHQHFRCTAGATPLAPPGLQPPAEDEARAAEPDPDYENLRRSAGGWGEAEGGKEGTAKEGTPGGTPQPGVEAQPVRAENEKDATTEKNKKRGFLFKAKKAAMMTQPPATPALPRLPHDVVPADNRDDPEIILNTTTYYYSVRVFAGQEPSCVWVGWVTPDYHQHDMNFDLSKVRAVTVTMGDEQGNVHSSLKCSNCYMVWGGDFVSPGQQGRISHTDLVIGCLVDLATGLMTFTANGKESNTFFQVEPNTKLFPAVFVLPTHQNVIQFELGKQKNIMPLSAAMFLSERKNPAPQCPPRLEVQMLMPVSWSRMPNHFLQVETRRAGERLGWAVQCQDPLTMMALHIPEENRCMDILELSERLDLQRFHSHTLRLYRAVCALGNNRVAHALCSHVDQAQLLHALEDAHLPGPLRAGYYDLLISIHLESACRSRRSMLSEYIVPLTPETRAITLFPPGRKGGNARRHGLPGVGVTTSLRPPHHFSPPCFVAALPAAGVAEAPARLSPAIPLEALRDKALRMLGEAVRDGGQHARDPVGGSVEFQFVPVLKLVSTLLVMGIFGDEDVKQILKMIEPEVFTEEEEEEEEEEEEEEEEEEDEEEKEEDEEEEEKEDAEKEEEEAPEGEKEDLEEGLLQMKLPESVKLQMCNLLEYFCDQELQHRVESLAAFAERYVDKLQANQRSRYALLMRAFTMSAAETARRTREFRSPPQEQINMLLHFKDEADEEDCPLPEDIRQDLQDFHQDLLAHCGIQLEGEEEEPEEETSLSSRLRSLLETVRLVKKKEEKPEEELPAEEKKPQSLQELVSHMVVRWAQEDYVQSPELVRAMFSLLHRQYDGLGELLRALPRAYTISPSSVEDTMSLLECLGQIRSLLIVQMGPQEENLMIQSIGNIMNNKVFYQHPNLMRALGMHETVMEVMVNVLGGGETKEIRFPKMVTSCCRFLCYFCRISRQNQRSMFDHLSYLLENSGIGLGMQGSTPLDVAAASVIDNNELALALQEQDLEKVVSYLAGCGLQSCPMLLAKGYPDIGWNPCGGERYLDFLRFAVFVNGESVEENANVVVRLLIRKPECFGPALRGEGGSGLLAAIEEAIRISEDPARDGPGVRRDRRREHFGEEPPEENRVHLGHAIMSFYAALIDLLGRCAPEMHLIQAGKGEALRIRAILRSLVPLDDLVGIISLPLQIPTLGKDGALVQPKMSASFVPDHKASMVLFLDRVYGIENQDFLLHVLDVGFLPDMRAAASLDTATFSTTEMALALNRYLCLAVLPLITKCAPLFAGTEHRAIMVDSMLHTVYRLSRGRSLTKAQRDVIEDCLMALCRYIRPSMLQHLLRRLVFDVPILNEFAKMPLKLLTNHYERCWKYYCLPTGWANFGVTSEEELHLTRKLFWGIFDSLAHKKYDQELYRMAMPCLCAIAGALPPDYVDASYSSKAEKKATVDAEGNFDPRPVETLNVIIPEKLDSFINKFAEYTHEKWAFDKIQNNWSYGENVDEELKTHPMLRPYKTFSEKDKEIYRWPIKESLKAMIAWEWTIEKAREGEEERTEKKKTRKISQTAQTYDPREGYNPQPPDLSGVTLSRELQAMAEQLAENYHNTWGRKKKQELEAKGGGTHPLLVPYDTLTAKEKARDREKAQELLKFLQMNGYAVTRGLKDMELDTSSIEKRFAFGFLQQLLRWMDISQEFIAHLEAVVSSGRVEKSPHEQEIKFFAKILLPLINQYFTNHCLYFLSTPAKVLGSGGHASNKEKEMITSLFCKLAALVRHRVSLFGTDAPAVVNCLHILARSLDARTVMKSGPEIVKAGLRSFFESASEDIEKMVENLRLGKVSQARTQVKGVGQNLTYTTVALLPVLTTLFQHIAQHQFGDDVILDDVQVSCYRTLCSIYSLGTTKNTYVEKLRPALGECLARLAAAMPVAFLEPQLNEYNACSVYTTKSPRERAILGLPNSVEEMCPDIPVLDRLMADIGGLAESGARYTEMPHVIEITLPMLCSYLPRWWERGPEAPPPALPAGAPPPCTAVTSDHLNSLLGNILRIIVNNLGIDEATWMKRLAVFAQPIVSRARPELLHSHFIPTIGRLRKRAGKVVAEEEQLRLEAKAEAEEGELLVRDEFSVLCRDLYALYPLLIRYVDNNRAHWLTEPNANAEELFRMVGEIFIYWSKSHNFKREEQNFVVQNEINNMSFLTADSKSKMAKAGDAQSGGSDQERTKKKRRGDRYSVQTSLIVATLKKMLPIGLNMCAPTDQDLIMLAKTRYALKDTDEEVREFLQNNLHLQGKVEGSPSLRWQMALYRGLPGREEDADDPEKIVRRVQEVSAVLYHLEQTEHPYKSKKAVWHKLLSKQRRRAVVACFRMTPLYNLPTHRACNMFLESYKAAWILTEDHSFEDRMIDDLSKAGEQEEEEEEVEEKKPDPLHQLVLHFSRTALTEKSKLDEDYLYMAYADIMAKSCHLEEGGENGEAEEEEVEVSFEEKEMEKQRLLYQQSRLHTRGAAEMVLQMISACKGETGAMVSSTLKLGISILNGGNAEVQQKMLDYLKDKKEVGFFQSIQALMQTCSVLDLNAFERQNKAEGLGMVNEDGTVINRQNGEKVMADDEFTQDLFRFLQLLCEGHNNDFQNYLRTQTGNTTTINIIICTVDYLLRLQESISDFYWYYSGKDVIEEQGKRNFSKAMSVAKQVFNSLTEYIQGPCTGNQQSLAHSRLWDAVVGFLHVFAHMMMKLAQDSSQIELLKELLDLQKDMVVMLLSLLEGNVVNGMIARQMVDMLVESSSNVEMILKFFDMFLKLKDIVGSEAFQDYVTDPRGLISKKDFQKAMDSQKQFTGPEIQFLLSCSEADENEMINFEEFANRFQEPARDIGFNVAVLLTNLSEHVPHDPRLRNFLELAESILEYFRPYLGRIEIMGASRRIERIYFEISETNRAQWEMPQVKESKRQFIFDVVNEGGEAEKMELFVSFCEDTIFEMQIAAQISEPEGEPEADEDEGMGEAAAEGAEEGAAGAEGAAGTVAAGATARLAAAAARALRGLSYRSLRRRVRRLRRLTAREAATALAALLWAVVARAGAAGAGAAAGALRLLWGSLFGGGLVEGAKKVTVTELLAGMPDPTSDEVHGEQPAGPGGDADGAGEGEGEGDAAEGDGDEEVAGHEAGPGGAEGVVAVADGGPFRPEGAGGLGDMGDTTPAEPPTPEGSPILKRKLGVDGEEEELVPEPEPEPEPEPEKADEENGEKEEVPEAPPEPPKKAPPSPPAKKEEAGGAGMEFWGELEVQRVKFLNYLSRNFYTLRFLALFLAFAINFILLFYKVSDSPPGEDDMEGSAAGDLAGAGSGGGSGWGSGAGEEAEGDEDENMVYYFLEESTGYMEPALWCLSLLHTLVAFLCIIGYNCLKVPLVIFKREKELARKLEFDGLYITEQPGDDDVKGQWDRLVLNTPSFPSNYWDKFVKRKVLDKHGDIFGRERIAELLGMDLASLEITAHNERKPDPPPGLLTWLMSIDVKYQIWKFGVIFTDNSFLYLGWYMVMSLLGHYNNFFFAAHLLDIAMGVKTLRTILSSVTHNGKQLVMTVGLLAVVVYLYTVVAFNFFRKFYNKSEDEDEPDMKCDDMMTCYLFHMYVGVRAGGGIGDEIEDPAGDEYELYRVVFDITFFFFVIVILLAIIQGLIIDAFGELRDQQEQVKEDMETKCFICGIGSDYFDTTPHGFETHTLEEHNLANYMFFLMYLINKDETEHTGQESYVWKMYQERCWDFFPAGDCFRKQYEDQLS
The assay is described as follows: Planar lipid bilayer single-channel recording, native RyR1 in HSR. Type of assay: biochemical. As to conditions: native RyR1 in SR, toxin cis, 6-100 nM, -30 mV, [Ca^2+]free 10 μM, pH 7.2, Hill fit, means ± SE of 3–9 experiments; read-out: EC50 for Psubstate. The method, then:
A heavy fraction of fragmented SR vesicles (HSR) containing junctional SR was prepared from rabbit fast-twitch back and leg muscles as described previously.
Single-channel recordings of rabbit skeletal RyR1 incorporated into planar lipid bilayers were carried out as described previously. Lipid bilayers, consisting of brain tissue phosphatidylethanolamine and phosphatidylserine (1 : 1) in decane (20 mg/mL) were formed across a hole of approximately 200 μm diameter. Thinning of the bilayer was monitored by bilayer capacitance. The basic composition of the cis/trans solution consisted of 300 mM cesium methanesulfonate, 10 mM Tris/Hepes (pH 7.2), 2 mM EGTA, and 1.998 mM CaCl2 ([Ca^2+]free = 10 μM). [Ca^2+]free was calculated using the “Chelator” program (Theo Schoenmaker). Cs^+ was selected as the charge carrier to ensure precise control of free [Ca^2+], to increase the channel conductance, and to avoid any contribution from potassium channels present in the SR membrane. Chloride channels were inhibited by using the impermeant anion methanesulfonate. Incorporation of ion channels was carried out as described by Miller and Racker and confirmed by recording the characteristically high single-channel conductance of RyRs. The trans side was maintained at ground and the cis side was clamped at −30 mV relative to the ground. After addition of the IpTxa to the cis chamber, the single channel data were collected at −30 mV for 2–5 min. […] Recordings were filtered with an 8-pole low-pass Bessel filter at 1 kHz and digitalized through a Digidata 1200 series interface (Axon Instruments). Data acquisition and analysis were done with the Axon Instruments software, pClamp v7.0.
Data were analyzed using the Hill equation described previously:
(1) Psubstate=(Psubstate, max )/[1+(EC50/[IpTxa])^nH] orPo=(Po, max )/[1+(EC50/[IpTxa])^nH], where (Po, max ) is the Po observed at saturating concentrations of IpTxa, EC50 is the IpTxa concentration for which 50% of Po, max is obtained and nH is the Hill coefficient. Also, Psubstate, max is the Psubstate observed at saturating concentrations of IpTxa, EC50 is the IpTxa concentration for which 50% of Psubstate, max is obtained, and nH is the Hill coefficient. The probability of full open state of the channel (Po) was defined as the ratio of the time spent in the open state to the total time exclusive of time spent in the substate. The probability to obtain substate (Psubstate) was calculated as the time spent in the substate divided by a given total recording time. The durations of the substate were obtained by manual positioning of the cursors and constructing all point histograms. Mean duration of substate was measured by total substate time divided by total substate frequencies.
Results are given as means ± SE. Significant differences were analyzed using Student's t-test. Differences were considered to be significant when P < 0.05. The fitting of the data to the graphs were carried out using the software, Origin v7.
To examine how IpTxa modifies RyR1 activity, RyR1 in HSR incorporated in planar lipid bilayers was tested in the presence or absence of synthetic wild-type IpTxa. The chamber solutions for both cis (cytosolic) and trans (luminal) sides included 300 mM cesium methanesulfonate and 10 mM Tris-Hepes (pH 7.2). 10 μM free Ca^2+ was added to the cis side to activate the incorporated RyR1. After an addition of IpTxa to the cis chamber, the single channel gating properties were recorded at a holding potential of −30 mV for over 2 min at each toxin concentration. […] To examine the effects of IpTxa on full open state, we calculated the probability to obtain the full open state (Po) as the time spent in the open state divided by the total time exclusive of the time spent in the substate. The time for recorded Po was in the range of 30 s–2 min. […] The steady-state Po was 0.18 ± 0.02 at 10 μM Ca^2+. […]
Turning to `CC(C)C[C@@H]1NC(=O)[C@H](Cc2c[nH]cn2)NC(=O)[C@@H]2CCCN2C(=O)[C@H](CC(C)C)NC(=O)[C@@H](NC(=O)[C@H](C)NC(=O)CN)CSSC[C@@H]2NC(=O)[C@@H]3CSSC[C@@H](C(=O)N[C@@H](CCCNC(=N)N)C(=O)O)NC(=O)[C@H](CCCNC(=N)N)NC(=O)[C@H](CCCCN)NC(=O)[C@H](CCC(=O)O)NC(=O)[C@H](C)NC(=O)[C@H](CC(N)=O)NC(=O)[C@H]([C@@H](C)O)NC(=O)CNC(=O)[C@H](CCCNC(=N)N)NC(=O)[C@H](CCCNC(=N)N)NC(=O)[C@H](CCCCN)NC(=O)[C@H](CSSC[C@H](NC(=O)[C@H](CCCNC(=N)N)NC(=O)[C@H](CCCCN)NC1=O)C(=O)N[C@@H](CCCCN)C(=O)N[C@@H](C)C(=O)N[C@@H](CC(=O)O)C(=O)N[C@@H](CC(N)=O)C(=O)N[C@@H](CC(=O)O)C(=O)N3)NC(=O)[C@H](CCCCN)NC(=O)[C@H](CCCCN)NC(=O)CNC2=O` [D2A] (H-GACLPHLKRCKADNDCCGKKCKRRGTNAEKRCR-OH; disulfide 3-17, 10-21, 16-32), the EC50 amounted to 28.6 ± 14 nM.
With `CC(C)C[C@@H]1NC(=O)[C@H](Cc2c[nH]cn2)NC(=O)[C@@H]2CCCN2C(=O)[C@H](CC(C)C)NC(=O)[C@@H](NC(=O)[C@H](CC(=O)O)NC(=O)CN)CSSC[C@@H]2NC(=O)[C@@H]3CSSC[C@@H](C(=O)N[C@@H](CCCNC(=N)N)C(=O)O)NC(=O)[C@H](CCCNC(=N)N)NC(=O)[C@H](CCCCN)NC(=O)[C@H](CCC(=O)O)NC(=O)[C@H](C)NC(=O)[C@H](CC(N)=O)NC(=O)[C@H]([C@@H](C)O)NC(=O)CNC(=O)[C@H](CCCNC(=N)N)NC(=O)[C@H](CCCNC(=N)N)NC(=O)[C@H](CCCCN)NC(=O)[C@H](CSSC[C@H](NC(=O)[C@H](CCCNC(=N)N)NC(=O)[C@H](CCCCN)NC1=O)C(=O)N[C@@H](CCCCN)C(=O)N[C@@H](C)C(=O)N[C@@H](C)C(=O)N[C@@H](CC(N)=O)C(=O)N[C@@H](CC(=O)O)C(=O)N3)NC(=O)[C@H](CCCCN)NC(=O)[C@H](CCCCN)NC(=O)CNC2=O` [D13A] (H-GDCLPHLKRCKAANDCCGKKCKRRGTNAEKRCR-OH; disulfide 3-17, 10-21, 16-32), the half-maximal effective concentration (EC50) was 21.7 ± 7.92 nM.
Turning to `CC(C)C[C@@H]1NC(=O)[C@H](Cc2c[nH]cn2)NC(=O)[C@@H]2CCCN2C(=O)[C@H](CC(C)C)NC(=O)[C@@H](NC(=O)[C@H](CC(=O)O)NC(=O)CN)CSSC[C@@H]2NC(=O)[C@@H]3CSSC[C@@H](C(=O)N[C@@H](CCCNC(=N)N)C(=O)O)NC(=O)[C@H](CCCNC(=N)N)NC(=O)[C@H](CCCCN)NC(=O)[C@H](CCC(=O)O)NC(=O)[C@H](C)NC(=O)[C@H](CC(N)=O)NC(=O)[C@H]([C@@H](C)O)NC(=O)CNC(=O)[C@H](CCCNC(=N)N)NC(=O)[C@H](CCCNC(=N)N)NC(=O)[C@H](CCCCN)NC(=O)[C@H](CSSC[C@H](NC(=O)[C@H](CCCNC(=N)N)NC(=O)[C@H](CCCCN)NC1=O)C(=O)N[C@@H](CCCCN)C(=O)N[C@@H](C)C(=O)N[C@@H](CC(=O)O)C(=O)N[C@@H](CC(N)=O)C(=O)N[C@@H](C)C(=O)N3)NC(=O)[C@H](CCCCN)NC(=O)[C@H](CCCCN)NC(=O)CNC2=O` [D15A] (H-GDCLPHLKRCKADNACCGKKCKRRGTNAEKRCR-OH; disulfide 3-17, 10-21, 16-32), the EC50 stood at 21.5 ± 1.92 nM.
The figure for `CC(C)C[C@@H]1NC(=O)[C@H](Cc2c[nH]cn2)NC(=O)[C@@H]2CCCN2C(=O)[C@H](CC(C)C)NC(=O)[C@@H](NC(=O)[C@H](CC(=O)O)NC(=O)CN)CSSC[C@@H]2NC(=O)[C@@H]3CSSC[C@@H](C(=O)N[C@@H](CCCNC(=N)N)C(=O)O)NC(=O)[C@H](CCCNC(=N)N)NC(=O)[C@H](CCCCN)NC(=O)[C@H](C)NC(=O)[C@H](C)NC(=O)[C@H](CC(N)=O)NC(=O)[C@H]([C@@H](C)O)NC(=O)CNC(=O)[C@H](CCCNC(=N)N)NC(=O)[C@H](CCCNC(=N)N)NC(=O)[C@H](CCCCN)NC(=O)[C@H](CSSC[C@H](NC(=O)[C@H](CCCNC(=N)N)NC(=O)[C@H](CCCCN)NC1=O)C(=O)N[C@@H](CCCCN)C(=O)N[C@@H](C)C(=O)N[C@@H](CC(=O)O)C(=O)N[C@@H](CC(N)=O)C(=O)N[C@@H](CC(=O)O)C(=O)N3)NC(=O)[C@H](CCCCN)NC(=O)[C@H](CCCCN)NC(=O)CNC2=O` [E29A] (H-GDCLPHLKRCKADNDCCGKKCKRRGTNAAKRCR-OH; disulfide 3-17, 10-21, 16-32) is 6.07 ± 4.28 nM; for `CC(C)C[C@@H]1NC(=O)[C@H](Cc2c[nH]cn2)NC(=O)[C@@H]2CCCN2C(=O)[C@H](CC(C)C)NC(=O)[C@@H](NC(=O)[C@H](CC(=O)O)NC(=O)CN)CSSC[C@@H]2NC(=O)[C@@H]3CSSC[C@@H](C(=O)N[C@@H](CCCNC(=N)N)C(=O)O)NC(=O)[C@H](CCCNC(=N)N)NC(=O)[C@H](CCCCN)NC(=O)[C@H](CCC(=O)O)NC(=O)[C@H](C)NC(=O)[C@H](CC(N)=O)NC(=O)[C@H]([C@@H](C)O)NC(=O)CNC(=O)[C@H](CCCNC(=N)N)NC(=O)[C@H](CCCNC(=N)N)NC(=O)[C@H](CCCCN)NC(=O)[C@H](CSSC[C@H](NC(=O)[C@H](CCCNC(=N)N)NC(=O)[C@H](CCCCN)NC1=O)C(=O)N[C@@H](C)C(=O)N[C@@H](C)C(=O)N[C@@H](CC(=O)O)C(=O)N[C@@H](CC(N)=O)C(=O)N[C@@H](CC(=O)O)C(=O)N3)NC(=O)[C@H](CCCCN)NC(=O)[C@H](CCCCN)NC(=O)CNC2=O` [K11A] (H-GDCLPHLKRCAADNDCCGKKCKRRGTNAEKRCR-OH; disulfide 3-17, 10-21, 16-32) it is 21.8 ± 3.49 nM; for `CC(C)C[C@@H]1NC(=O)[C@H](Cc2c[nH]cn2)NC(=O)[C@@H]2CCCN2C(=O)[C@H](CC(C)C)NC(=O)[C@@H](NC(=O)[C@H](CC(=O)O)NC(=O)CN)CSSC[C@@H]2NC(=O)[C@@H]3CSSC[C@@H](C(=O)N[C@@H](CCCNC(=N)N)C(=O)O)NC(=O)[C@H](CCCNC(=N)N)NC(=O)[C@H](CCCCN)NC(=O)[C@H](CCC(=O)O)NC(=O)[C@H](C)NC(=O)[C@H](CC(N)=O)NC(=O)[C@H]([C@@H](C)O)NC(=O)CNC(=O)[C@H](CCCNC(=N)N)NC(=O)[C@H](CCCNC(=N)N)NC(=O)[C@H](CCCCN)NC(=O)[C@H](CSSC[C@H](NC(=O)[C@H](CCCNC(=N)N)NC(=O)[C@H](CCCCN)NC1=O)C(=O)N[C@@H](CCCCN)C(=O)N[C@@H](C)C(=O)N[C@@H](CC(=O)O)C(=O)N[C@@H](CC(N)=O)C(=O)N[C@@H](CC(=O)O)C(=O)N3)NC(=O)[C@H](CCCCN)NC(=O)[C@H](C)NC(=O)CNC2=O` [K19A] (H-GDCLPHLKRCKADNDCCGAKCKRRGTNAEKRCR-OH; disulfide 3-17, 10-21, 16-32) it is 21.8 ± 6.47 nM.
For the compound `CC(C)C[C@@H]1NC(=O)[C@H](Cc2c[nH]cn2)NC(=O)[C@@H]2CCCN2C(=O)[C@H](CC(C)C)NC(=O)[C@@H](NC(=O)[C@H](CC(=O)O)NC(=O)CN)CSSC[C@@H]2NC(=O)[C@@H]3CSSC[C@@H](C(=O)N[C@@H](CCCNC(=N)N)C(=O)O)NC(=O)[C@H](CCCNC(=N)N)NC(=O)[C@H](CCCCN)NC(=O)[C@H](CCC(=O)O)NC(=O)[C@H](C)NC(=O)[C@H](CC(N)=O)NC(=O)[C@H]([C@@H](C)O)NC(=O)CNC(=O)[C@H](CCCNC(=N)N)NC(=O)[C@H](CCCNC(=N)N)NC(=O)[C@H](CCCCN)NC(=O)[C@H](CSSC[C@H](NC(=O)[C@H](CCCNC(=N)N)NC(=O)[C@H](CCCCN)NC1=O)C(=O)N[C@@H](CCCCN)C(=O)N[C@@H](C)C(=O)N[C@@H](CC(=O)O)C(=O)N[C@@H](CC(N)=O)C(=O)N[C@@H](CC(=O)O)C(=O)N3)NC(=O)[C@H](C)NC(=O)[C@H](CCCCN)NC(=O)CNC2=O` [K20A] (H-GDCLPHLKRCKADNDCCGKACKRRGTNAEKRCR-OH; disulfide 3-17, 10-21, 16-32), the EC50 was 18.5 ± 8.17 nM.

For the origin of these results see paper PMC3192407, “Both Basic and Acidic Amino Acid Residues of IpTxa Are Involved in Triggering Substate of RyR1” (Journal of Biomedicine and Biotechnology, 2011).
